# In article PMC3446820 (Journal of medicinal chemistry, 2012):
# Read-outs that look alike come from different tables or passages of the source.
# Columns and labels:
# [1] = target: T1, PfDHODH (Plasmodium falciparum, UniProt Q08210); test: biochemical; assay type: biochemical; settings: for fold less potent against PfDHODH than the comparable triazolopyrimidine 1: reduction in binding affinity/activity relative to 1
# T1 sequence (Q08210 24-569): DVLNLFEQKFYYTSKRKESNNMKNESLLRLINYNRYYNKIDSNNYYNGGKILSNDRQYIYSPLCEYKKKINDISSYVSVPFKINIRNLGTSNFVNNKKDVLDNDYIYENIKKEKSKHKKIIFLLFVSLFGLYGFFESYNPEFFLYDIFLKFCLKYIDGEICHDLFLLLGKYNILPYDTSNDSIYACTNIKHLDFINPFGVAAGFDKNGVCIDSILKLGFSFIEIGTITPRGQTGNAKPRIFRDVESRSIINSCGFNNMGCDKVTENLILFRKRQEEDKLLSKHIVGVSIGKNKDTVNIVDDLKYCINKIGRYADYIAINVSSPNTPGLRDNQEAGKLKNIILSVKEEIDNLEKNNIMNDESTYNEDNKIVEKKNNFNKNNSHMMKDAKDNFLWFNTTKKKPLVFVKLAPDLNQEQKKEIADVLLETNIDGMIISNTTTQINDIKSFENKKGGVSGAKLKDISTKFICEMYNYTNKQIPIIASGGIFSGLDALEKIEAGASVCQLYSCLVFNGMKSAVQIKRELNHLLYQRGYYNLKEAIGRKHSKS
# [2] = tested on: P. falciparum 3D7 cells; settings: read-out: EC50 (μM) Pf3D7; clone 3D7; ref [27],[29]; cited from earlier work
# [3] = tested on: P. berghei; settings: mice, oral dosing; ref [29]; cited from earlier work
# [4] = target: hDHODH (Homo sapiens, UniProt Q02127); settings: cited from earlier work
# [5] = human liver microsomes; ref Gujjar et al. [29]; cited from earlier work
# [6] = target: PbDHODH (Plasmodium berghei, UniProt A0A509AEH5); test: PbDHODH steady-state colorimetric DCIP enzyme assay; assay type: biochemical; settings: relative to 2
# [7] = In vitro metabolic stability in human liver microsomes; assay type: in vitro ADME
# [8] = In vitro metabolic stability in mouse liver microsomes; assay type: in vitro ADME
# [9] = Mouse pharmacokinetics after single oral dose; assay type: in vivo; settings: mice
# [10] = tested on: P. berghei; test: P. berghei mouse in vivo efficacy model; design: species or system Plasmodium berghei; settings: mice
# Sequence of hDHODH (Q02127 whole entry): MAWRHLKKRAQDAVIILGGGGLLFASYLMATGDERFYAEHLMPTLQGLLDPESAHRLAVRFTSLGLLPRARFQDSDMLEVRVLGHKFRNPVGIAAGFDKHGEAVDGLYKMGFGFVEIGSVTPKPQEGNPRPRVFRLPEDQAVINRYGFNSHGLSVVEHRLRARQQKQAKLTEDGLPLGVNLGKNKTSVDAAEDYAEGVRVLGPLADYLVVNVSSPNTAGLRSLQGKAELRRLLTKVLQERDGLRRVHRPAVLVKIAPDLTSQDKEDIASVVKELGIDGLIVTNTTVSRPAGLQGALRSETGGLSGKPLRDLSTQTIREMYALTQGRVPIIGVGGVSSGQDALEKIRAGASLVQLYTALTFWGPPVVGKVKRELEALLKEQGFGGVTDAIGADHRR
# Sequence of PbDHODH (A0A509AEH5 132-517 limits assumed): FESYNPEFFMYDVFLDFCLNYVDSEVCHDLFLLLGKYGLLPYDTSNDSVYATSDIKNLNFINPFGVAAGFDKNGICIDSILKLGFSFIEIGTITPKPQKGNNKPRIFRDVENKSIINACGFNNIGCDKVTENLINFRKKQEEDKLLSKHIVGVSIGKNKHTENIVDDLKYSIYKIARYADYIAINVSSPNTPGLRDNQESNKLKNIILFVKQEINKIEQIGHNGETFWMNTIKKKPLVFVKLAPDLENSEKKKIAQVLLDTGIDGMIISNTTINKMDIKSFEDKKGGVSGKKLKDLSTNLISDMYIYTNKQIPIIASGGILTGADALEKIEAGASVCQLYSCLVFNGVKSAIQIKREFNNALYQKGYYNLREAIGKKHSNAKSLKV
smiles,measurement,setting,value
"Cc1cc(Nc2ccc3ccccc3c2)n2nccc2n1 [Compound 8, 5-Methyl-N-(naphthalen-2-yl)pyrazolo[1,5-a]pyrimidin-7-amine]",fold less potent against PfDHODH than the comparable triazolopyrimidine 1,[1],~ 8.5 fold
"Cc1cc(Nc2ccc3ccccc3c2)n2ncnc2n1 [Compound 1, (5-methyl-[1,2,4]triazolo[1,5-a]pyrimidin-7-yl)naphthalene-2-ylamine]",EC50,[2],0.076 µM
same,in vivo efficacy in the P. berghei model (in words),[3],no anti-parasite activity
same,IC50,"[4]; read-out: IC50 (μM) hDHODH, ref [27],[29]",> 100 µM
same,activity against human DHODH (in words),[4]; ref [26]–[28],without inhibiting human DHODH
"Cc1cc(Nc2ccc3ccccc3c2)n2ccnc2n1 [Compound 6, 7-Methyl-N-(naphthalen-2-yl)imidazo[1,2-a]pyrimidin-5-amine]",fold less potent against PfDHODH than the comparable triazolopyrimidine 1,[1],3 fold
"Cc1nc(Nc2ccc3ccccc3c2)c2nc[nH]c2n1 [Compound 9, 2-Methyl-N-(naphthalen-2-yl)-9H-purin-6-amine]",fold less potent against PfDHODH than the comparable triazolopyrimidine 1,[1],~ 9 fold
"Cc1nc(Nc2n[nH]cc2C#N)c2nc[nH]c2n1 [Compound 15, 3-(2-Methyl-9H-purin-6-ylamino)-1H-pyrazole-4-carbonitrile]",IC50,[1],> 100 µM
same,PfDHODH activity (in words),[1],inactive
"Cc1cc(Nc2ccc(C(F)(F)F)cc2)n2ncnc2n1 [Compound 2, 5-methyl-N-(4-(trifluoromethyl)phenyl)-[1,2,4]triazolo[1,5-a]pyrimidin-7-amine]",Predicted EH,[5],0.29
same,in vivo efficacy in the P. berghei model (in words),[3],able to suppress parasitemia
"Cc1nc(Nc2ccc3ccccc3c2)c2cn[nH]c2n1 [Compound 10, 6-Methyl-N-(naphthalen-2-yl)-1H-pyrazolo[3,4-d]pyrimidin-4-amine]",IC50,[1],> 100 µM
same,PfDHODH activity (in words),[1],inactivated
"Cc1cc(Nc2ccc(C(F)(F)F)cc2)n2ccnc2n1 [Compound 16, 7-Methyl-N-(4-(trifluoromethyl)phenyl)imidazo[1,2-a]pyrimidin-5-amine]",fold more potent against PfDHODH than the equivalent triazolopyrimidine 2,[1]; relative to 2,4 fold
same,fold better potency against PbDHODH than 2,[6],2 fold
same,Putative metabolites,[7]; human liver microsomes,None detected
same,Predicted EH,"[7]; human liver microsomes, predicted in vivo hepatic extraction ratio",0.21
same,microsomal CLint at 1 μM,"[7]; human, pooled human liver microsomes",4.7 µL/min/mg
same,Putative metabolites,[8]; mouse liver microsomes,None detected
same,Predicted EH,"[8]; mouse liver microsomes, predicted in vivo hepatic extraction ratio",0.59
same,in vitro clearance class,[8]; mouse microsomes,intermediate
same,microsomal CLint at 1 μM,"[8]; mouse, pooled mouse liver microsomes",34 µL/min/mg
same,adverse reactions following oral administration,[9]; 10 mg/kg oral,No adverse reactions were observed
same,peak plasma concentrations,[9]; single oral dose 10 mg/kg,3.9 µM
same,time plasma levels maintained above 1 μM,[9]; single oral dose 10 mg/kg,about 4 h
same,in vivo efficacy in the P. berghei model (in words),[10],suppresses parasites in vivo
"Cc1nc(Nc2ccc3ncccc3c2)c2nc[nH]c2n1 [Compound 14, N-(2-Methyl-9H-purin-6-yl)quinolin-6-amine]",IC50,[1],> 25 µM
"Cc1cc(Nc2ccc3ccccc3c2)n2ncnc2c1 [Compound 7, 7-Methyl-N-(naphthalen-2-yl)-[1,2,4]triazolo[1,5-a]pyridin-5-amine]",fold less potent against PfDHODH than the comparable triazolopyrimidine 1,[1],100 fold
Cc1cc(NC(=O)c2ccc(C(F)(F)F)cc2)n2ncnc2n1 [Compound 5],IC50,[1],> 100 µM
same,PfDHODH activity (in words),[1],loss of activity
"Cc1cc(Nc2ccc3ccccc3c2)c2nncn2n1 [Compound 11, 6-Methyl-N-(naphthalen-2-yl)-[1,2,4]triazolo[4,3-b]pyridazin-8-amine]",IC50,[1],> 50 µM
same,PfDHODH activity (in words),[1],inactivated
"Cc1cc(NC(=O)c2ccccc2)n2ncnc2n1 [Compound 4, N-(5-methyl-[1,2,4]triazolo[1,5-a]pyrimidin-7-yl)benzamide]",IC50,[1],> 100 µM
same,PfDHODH activity (in words),[1],loss of activity
